Test results: patent US20090280069A1, “PROGUANIL TO TREAT SKIN/MUCOSAL DISEASES” (Tolmar, Inc., priority 2008, published 2009)

Tested on: Candida albicans ATCC 10231
Experiment: time kill assay, C. albicans
Format: cell-based
Procedure: A time kill assay was used to test the effects of varying concentrations of proguanil on a culture of Candida albicans ATCC 10231. An inoculum of C. albicans was prepared and inoculated in vials containing Muller Hinton II broth and proguanil concentrations of 1280, 640, 480, 320, 160 μg/ml. A growth control using phosphate buffered saline A (PBSA) plus Mueller Hinton II broth was used in place of the drug because it has no antimicrobial effect. DGME was the solvent used to dissolve the proguanil. Accordingly, 10% DGME was used as the solvent control. These inoculated broth solutions were then allowed to incubate for a period of 72 hours. Samples were taken at 0, 4, 24, 48 and 72 hours and spiral plated so the CFU/ml could be calculated.

**Q.** Which CFU/ml (160 μg/ml, static from 24 to 72 hours) does the source give for `CC(C)NC(=N)NC(=N)Nc1ccc(Cl)cc1` [Proguanil, N-(4-Chlorophenyl)-N′-(1-methylethyl)imidodicarbonimidic diamide] here?
**A.** The CFU/ml was 80 CFU/ml.

**Q.** And the “effect on C. albicans” value (320 μg/ml, 24 hour time point and later)?
**A.** Its value is “completely killed”.

**Q.** What about the CFU counts (1280 μg/ml, all time points 0-72 hours) of the same molecule?
**A.** The CFU counts was 0 CFU.

**Q.** And the “effect on the yeast” value (640 and 480 μg/ml, 4-72 hour time points)?
**A.** Its value is “killing all of the yeast”.

**Q.** And the “Relative Sensitivity (Compared to Other Strains Tested)” value (Candida albicans)?
**A.** Its value is “Moderately”.

**Q.** What about the “Approximate Inhibitory Level” value (Candida albicans, level at which partial or total inhibition of growth is observed) of the same molecule?
**A.** Its value is 320 µg/mL.
